test system: HBV (encapsidated HBV DNA, HepG2.2.15 cells); assay: HBV replication inhibition assay, BDNA assay in HepG2.2.15 cells; format: cell-based; conditions: Activity in BDNA-assay
Method: HBV replication inhibition by the disclosed compounds were determined in cells infected or transfected with HBV, or cells with stably integrated HBV, such as HepG2.2.15 cells (Sells et al. 1987). In this example, HepG2.2.15 cells were maintained in cell culture medium containing 10% fetal bovine serum (FBS), Geneticin, L-glutamine, penicillin and streptomycin. HepG2.2.15 cells were seeded in 96-well plates at a density of 40,000 cells/well and were treated with serially diluted compounds at a final DMSO concentration of 0.5% either alone or in combination by adding drugs in a checker box format. Cells were incubated with compounds for three days, after which medium was removed and fresh medium containing compounds was added to cells and incubated for another three days. At day 6, supernatant was removed and treated with DNase at 37° C. for 60 minutes, followed by enzyme inactivation at 75° C. for 15 minutes. Encapsidated HBV DNA was released from the virions and covalently linked HBV polymerase by incubating in lysis buffer (Affymetrix QS0010) containing 2.5 μg proteinase K at 50° C. for 40 minutes. HBV DNA was denatured by addition of 0.2 M NaOH and detected using a branched DNA (BDNA) QuantiGene assay kit according to manufacturer recommendation (Affymetrix). HBV DNA levels were also quantified using qPCR, based on amplification of encapsidated HBV DNA extraction with QuickExtraction Solution (Epicentre Biotechnologies) and amplification of HBV DNA using HBV specific PCR probes that can hybridize to HBV DNA and a fluorescently labeled probe for quantitation. In addition, cell viability of HepG2.2.15 cells incubated with test compounds alone or in combination was determined by using CellTitre-Glo reagent according to the manufacturer protocol (Promega). The mean background signal from wells containing only culture medium was subtracted from all other samples, and percent inhibition at each compound concentration was calculated by normalizing to signals from HepG2.2.15 cells treated with 0.5% DMSO using equation E1. % inhibition=(DMSOave−Xi)/DMSOave×100% E1: where DMSOave is the mean signal calculated from the wells that were treated with DMSO control (0% inhibition control) and Xi is the signal measured from the individual wells. EC50 values, effective concentrations that achieved 50% inhibitory effect, were determined by non-linear fitting using Graphpad Prism software (San Diego, Calif.) and equation E2: Y=Y min+(Y max −Y min)/(1+10(Log EC50−X)×HillSlope) E2: […]
where Y represents percent inhibition values and X represents the logarithm of compound concentrations.
Selected disclosed compounds were assayed in the HBV replication assay (BDNA assay), as described above and a representative group of these active compounds is shown in Table 6.

Structure (SMILES)	EC50 [nM]
C[C@@H]1Cc2nn3c(c2CN1C(=O)Nc1ccc(F)c(C#N)c1)C(=O)N(C)CC(CO)C3 (single isomer, unassigned) [Compound 087_D2, (3R,8R*)—N-(3-cyano-4-fluorophenyl)-8-(hydroxymethyl)-3,10-dimethyl-11-oxo-1,3,4,7,8,9,10,11-octahydro-2H-pyrido[4′,3′:3,4]pyrazolo[1,5-a][1,4]diazepine-2-carboxamide]	1 to 100
C[C@@H]1Cc2nn3c(c2CN1C(=O)Nc1ccc(F)c(C#N)c1F)C(=O)N(C)CC(CO)C3 (single isomer, unassigned) [Compound 088_D2, (3R,8R*)—N-(3-cyano-2,4-difluorophenyl)-8-(hydroxymethyl)-3,10-dimethyl-11-oxo-1,3,4,7,8,9,10,11-octahydro-2H-pyrido[4′,3′:3,4]pyrazolo[1,5-a][1,4]diazepine-2-carboxamide]	1 to 100
C[C@@H]1Cc2nn3c(c2CN1C(=O)Nc1ccc(F)c(Cl)c1F)C(=O)N(C)CC(CO)C3 (single isomer, unassigned) [Compound 089_D2, (3R,8R*)—N-(3-chloro-2,4-difluorophenyl)-8-(hydroxymethyl)-3,10-dimethyl-11-oxo-1,3,4,7,8,9,10,11-octahydro-2H-pyrido[4′,3′:3,4]pyrazolo[1,5-a][1,4]diazepine-2-carboxamide]	1 to 100
C[C@@H]1Cc2nn3c(c2CN1C(=O)Nc1cc(Cl)c(F)cc1F)C(=O)N(C)CC(CO)C3 (single isomer, unassigned) [Compound 090_D2, (3R,8R*)—N-(5-chloro-2,4-difluorophenyl)-8-(hydroxymethyl)-3,10-dimethyl-11-oxo-1,3,4,7,8,9,10,11-octahydro-2H-pyrido[4′,3′:3,4]pyrazolo[1,5-a][1,4]diazepine-2-carboxamide]	1 to 100
C[C@@H]1Cc2nn3c(c2CN1C(=O)Nc1ccc(F)c(Cl)c1)C(=O)N(CC(F)F)CC(CO)C3 (single isomer, unassigned) [Compound 092_D2, (3R,8 S*)—N-(3-chloro-4-fluorophenyl)-10-(2,2-difluoroethyl)-8-(hydroxymethyl)-3-methyl-11-oxo-1,3,4,7,8,9,10,11-octahydro-2H-pyrido[4′,3′:3,4]pyrazolo[1,5-a][1,4]diazepine-2-carboxamide]	1 to 100
CCC(O)C1CN(C)C(=O)c2c3c(nn2C1)CCN(C(=O)Nc1cc(Cl)c(F)cc1F)C3 (single isomer, unassigned) [Compound 096_E3, (S*)—N-(5-chloro-2,4-difluorophenyl)-8-((S*)-1-hydroxypropyl)-10-methyl-11-oxo-1,3,4,7,8,9,10,11-octahydro-2H-pyrido[4′,3′:3,4]pyrazolo[1,5-a][1,4]diazepine-2-carboxamide]	100 to 500
CCC(O)C1CN(C)C(=O)c2c3c(nn2C1)CCN(C(=O)Nc1ccc(F)c(C#N)c1)C3 (single isomer, unassigned) [Compound 097_E1, (R*)—N-(3-cyano-4-fluorophenyl)-8-((S*)-1-hydroxypropyl)-10-methyl-11-oxo-1,3,4,7,8,9,10,11-octahydro-2H-pyrido[4′,3′:3,4]pyrazolo[1,5-a][1,4]diazepine-2-carboxamide]	1 to 100
CCC(O)C1CN(C)C(=O)c2c3c(nn2C1)CCN(C(=O)Nc1ccc(F)c(C#N)c1)C3 (single isomer, unassigned) [Compound 097_E2, (S*)—N-(3-cyano-4-fluorophenyl)-8-((R*)-1-hydroxypropyl)-10-methyl-11-oxo-1,3,4,7,8,9,10,11-octahydro-2H-pyrido[4′,3′: 3,4]pyrazolo[1,5-a][1,4]diazepine-2-carboxamide]	100 to 500
CCC(O)C1CN(C)C(=O)c2c3c(nn2C1)CCN(C(=O)Nc1ccc(F)c(C#N)c1)C3 (single isomer, unassigned) [Compound 097_E3, (S*)—N-(3-cyano-4-fluorophenyl)-8-((S*)-1-hydroxypropyl)-10-methyl-11-oxo-1,3,4,7,8,9,10,11-octahydro-2H-pyrido[4′,3′: 3,4]pyrazolo[1,5-a][1,4]diazepine-2-carboxamide]	100 to 500
CCC(O)C1CN(C)C(=O)c2c3c(nn2C1)CCN(C(=O)Nc1ccc(F)c(C#N)c1)C3 (single isomer, unassigned) [Compound 097_E4, (R*)—N-(3-cyano-4-fluorophenyl)-8-((R*)-1-hydroxypropyl)-10-methyl-11-oxo-1,3,4,7,8,9,10,11-octahydro-2H-pyrido[4′,3′: 3,4]pyrazolo[1,5-a][1,4]diazepine-2-carboxamide]	1 to 100
CCC(O)C1CN(C)C(=O)c2c3c(nn2C1)CCN(C(=O)Nc1ccc(F)c(C#N)c1F)C3 (single isomer, unassigned) [Compound 098_E1, (R*)—N-(3-cyano-2,4-difluorophenyl)-8-((S*)-1-hydroxypropyl)-10-methyl-11-oxo-1,3,4,7,8,9,10,11-octahydro-2H-pyrido[4′,3′:3,4]pyrazolo[1,5-a][1,4]diazepine-2-carboxamide]	1 to 100
CCC(O)C1CN(C)C(=O)c2c3c(nn2C1)CCN(C(=O)Nc1ccc(F)c(C#N)c1F)C3 (single isomer, unassigned) [Compound 098_E2, (S*)—N-(3-cyano-2,4-difluorophenyl)-8-((R*)-1-hydroxypropyl)-10-methyl-11-oxo-1,3,4,7,8,9,10,11-octahydro-2H-pyrido[4′,3′:3,4]pyrazolo[1,5-a][1,4]diazepine-2-carboxamide]	500 to 1000

same assay, conditions: Hepatitis B virus, HepG2.2.15, Activity in BDNA-assay

Structure (SMILES)	EC50 [nM]
C[C@@H]1Cc2nn3c(c2CN1C(=O)Nc1ccc(F)c(C#N)c1)C(=O)N(C)CC(CO)C3 (single isomer, unassigned) [Compound 087_D1, (3R,8S*)—N-(3-cyano-4-fluorophenyl)-8-(hydroxymethyl)-3,10-dimethyl-11-oxo-1,3,4,7,8,9,10,11-octahydro-2H-pyrido[4′,3′:3,4]pyrazolo[1,5-a][1,4]diazepine-2-carboxamide]	1 to 100
C[C@@H]1Cc2nn3c(c2CN1C(=O)Nc1ccc(F)c(C#N)c1F)C(=O)N(C)CC(CO)C3 (single isomer, unassigned) [Compound 088_D1, (3R,8S*)—N-(3-cyano-2,4-difluorophenyl)-8-(hydroxymethyl)-3,10-dimethyl-11-oxo-1,3,4,7,8,9,10,11-octahydro-2H-pyrido[4′,3′:3,4]pyrazolo[1,5-a][1,4]diazepine-2-carboxamide]	1 to 100
C[C@@H]1Cc2nn3c(c2CN1C(=O)Nc1ccc(F)c(Cl)c1F)C(=O)N(C)CC(CO)C3 (single isomer, unassigned) [Compound 089_D1, (3R,8S*)—N-(3-chloro-2,4-difluorophenyl)-8-(hydroxymethyl)-3,10-dimethyl-11-oxo-1,3,4,7,8,9,10,11-octahydro-2H-pyrido[4′,3′:3,4]pyrazolo[1,5-a][1,4]diazepine-2-carboxamide]	1 to 100
C[C@@H]1Cc2nn3c(c2CN1C(=O)Nc1cc(Cl)c(F)cc1F)C(=O)N(C)CC(CO)C3 (single isomer, unassigned) [Compound 090_D1, (3R,8S*)—N-(5-chloro-2,4-difluorophenyl)-8-(hydroxymethyl)-3,10-dimethyl-11-oxo-1,3,4,7,8,9,10,11-octahydro-2H-pyrido[4′,3′:3,4]pyrazolo[1,5-a][1,4]diazepine-2-carboxamide]	1 to 100
C[C@@H]1Cc2nn3c(c2CN1C(=O)Nc1ccc(F)c(Cl)c1)C(=O)N(CC(F)F)CC(CO)C3 (single isomer, unassigned) [Compound 092_D1, (3R,8R*)—N-(3-chloro-4-fluorophenyl)-10-(2,2-difluoroethyl)-8-(hydroxymethyl)-3-methyl-11-oxo-1,3,4,7,8,9,10,11-octahydro-2H-pyrido[4′,3′:3,4]pyrazolo[1,5-a][1,4]diazepine-2-carboxamide]	1 to 100
CC[C@H](O)[C@@H]1CN(C)C(=O)c2c3c(nn2C1)CCN(C(=O)Nc1cc(Cl)c(F)cc1F)C3 (single isomer, unassigned) [Compound 096_E1, (R*)—N-(5-chloro-2,4-difluorophenyl)-8-((S*)-1-hydroxypropyl)-10-methyl-11-oxo-1,3,4,7,8,9,10,11-octahydro-2H-pyrido[4′,3′:3,4]pyrazolo[1,5-a][1,4]diazepine-2-carboxamide]	1 to 100
CCC(O)C1CN(C)C(=O)c2c3c(nn2C1)CCN(C(=O)Nc1cc(Cl)c(F)cc1F)C3 (single isomer, unassigned) [Compound 096_E2, (S*)—N-(5-chloro-2,4-difluorophenyl)-8-((R*)-1-hydroxypropyl)-10-methyl-11-oxo-1,3,4,7,8,9,10,11-octahydro-2H-pyrido[4′,3′:3,4]pyrazolo[1,5-a][1,4]diazepine-2-carboxamide]	100 to 500

Reference: patent US10975077B2 (Novira Therapeutics, Inc., priority 2016, dated 2021)
